According to patent US12077503B2, “Substituted cyclic amides and their use as herbicides” (FMC CORPORATION, priority 2015, dated 2024):

Columns and labels:
Type in all cases: in vivo
[1] = system: barnyardgrass (Echinochloa crus-galli); assay: Test A preemergence; settings: Echinochloa crus-galli, pre-emergence, 240 h, 0 to 100 scale where 0 is no effect and 100 is complete control, read-out: Barnyardgrass plant response rating
Method in brief: (§1)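 Seeds sprayed preemergence with a directed soil spray, or plants at 2 to 10 cm height and one- to two-leaf stage sprayed postemergence, with test chemicals in a non-phytotoxic solvent mixture containing surfactant, in loam soil–sand blend. Injury rated visually against untreated controls after about 10 d in greenhouse, 0 (no effect) to 100 (complete control).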

[2] = system: Kochia (Kochia scoparia); assay: Test A preemergence; settings: Bassia scoparia, pre-emergence, 240 h, 0 to 100 scale where 0 is no effect and 100 is complete control, read-out: Kochia plant response rating
Method in brief: as §1

[3] = system: giant foxtail (Setaria faberii); assay: Test A preemergence; settings: Setaria faberi, pre-emergence, 240 h, 0 to 100 scale where 0 is no effect and 100 is complete control, read-out: Foxtail, Giant plant response rating
Method in brief: as §1

[4] = system: pigweed (Amaranthus retroflexus); assay: Test A preemergence; settings: Amaranthus retroflexus, pre-emergence, 240 h, 0 to 100 scale where 0 is no effect and 100 is complete control, read-out: Pigweed plant response rating
[5] = system: ryegrass, Italian (Italian ryegrass, Lolium multiflorum); assay: Test A preemergence; settings: Lolium multiflorum, pre-emergence, 240 h, 0 to 100 scale where 0 is no effect and 100 is complete control, read-out: Ryegrass, Italian plant response rating
Method in brief: as §1

[6] = system: ragweed (common ragweed, Ambrosia elatior); assay: Test A preemergence; settings: Ambrosia artemisiifolia, pre-emergence, 240 h, 0 to 100 scale where 0 is no effect and 100 is complete control, read-out: Ragweed plant response rating
Method in brief: as §1

[7] = system: barnyardgrass (Echinochloa crus-galli); assay: Test B flooded paddy test; settings: Echinochloa crus-galli, 250 g ai/ha, Flood; 0 to 100 scale where 0 is no effect and 100 is complete control; read-out: Barnyardgrass plant response rating
Method in brief: (§2)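 Evaluation by eye, against controls, occurred 13–15 d post-treatment in a greenhouse, using a 0 (no effect) to 100 (complete control) scale. Application was into the paddy water, 3 cm deep over the soil, on 2-leaf plants.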

[8] = system: ducksalad (Heteranthera limosa); assay: Test B flooded paddy test; settings: Heteranthera limosa, 250 g ai/ha, Flood; 0 to 100 scale where 0 is no effect and 100 is complete control; read-out: Ducksalad plant response rating
Method in brief: as §2

[9] = system: sedge, umbrella (small-flower umbrella sedge, Cyperus difformis); assay: Test B flooded paddy test; settings: Cyperus difformis, 250 g ai/ha, Flood; 0 to 100 scale where 0 is no effect and 100 is complete control; read-out: Sedge, Umbrella plant response rating
Method in brief: as §2

[10] = system: rice (Oryra sativa); assay: Test B flooded paddy test; settings: Oryza sativa, 250 g ai/ha, Flood; 0 to 100 scale where 0 is no effect and 100 is complete control; read-out: Rice plant response rating
Method in brief: as §2

[11] = system: blackgrass (Alopecurus myosuroides); assay: Test A postemergence; settings: Alopecurus myosuroides, post-emergence, 240 h
Method in brief: as §1

[12] = system: barnyardgrass (Echinochloa crus-galli); assay: Test A postemergence; settings: Echinochloa crus-galli, post-emergence, 240 h
Method in brief: as §1

[13] = system: wheat (Triticum aestivum); assay: Test A postemergence; settings: Triticum aestivum, post-emergence, 240 h
Method in brief: as §1

[14] = system: Kochia (Kochia scoparia); assay: Test A postemergence; settings: Bassia scoparia, post-emergence, 240 h
Method in brief: as §1

[15] = system: giant foxtail (Setaria faberii); assay: Test A postemergence; settings: Setaria faberi, post-emergence, 240 h
Method in brief: as §1

[16] = system: pigweed (Amaranthus retroflexus); assay: Test A postemergence; settings: Amaranthus retroflexus, post-emergence, 240 h
Method in brief: as §1

[17] = system: corn (Zea mays); assay: Test A postemergence; settings: Zea mays, post-emergence, 240 h
Method in brief: as §1

[18] = system: Galium (catchweed bedstraw, Galium aparine); assay: Test A postemergence; settings: Galium, post-emergence, 240 h
Method in brief: as §1

[19] = system: ryegrass, Italian (Italian ryegrass, Lolium multiflorum); assay: Test A postemergence; settings: Lolium multiflorum, post-emergence, 240 h
Method in brief: as §1

[20] = system: ragweed (common ragweed, Ambrosia elatior); assay: Test A postemergence; settings: Ambrosia artemisiifolia, post-emergence, 240 h
Method in brief: as §1

[21] = 125 g ai/ha, preemergence, approx. 10 d

**Q.** For `C=C(C)c1ccc([C@H]2CN(C)C(=O)[C@@H]2C(=O)Nc2cccc(F)c2F)cc1` [Compound 1149], which pest or weed control at 31 g/ha ([1]; 31 g ai/ha, Preemergence) is on record?
**A.** 70%

**Q.** And the pest or weed control at 125 g/ha [1, 21]?
**A.** 90%

**Q.** And the pest or weed control at 31 g/ha ([2]; 31 g ai/ha, Preemergence)?
**A.** 0%

**Q.** What about the pest or weed control at 125 g/ha [2, 21] of the same molecule?
**A.** 20%

**Q.** What about the pest or weed control at 31 g/ha ([3]; 31 g ai/ha, Preemergence) of the same molecule?
**A.** 80%

**Q.** And the pest or weed control at 125 g/ha [3, 21]?
**A.** 90%

**Q.** What about the pest or weed control at 31 g/ha ([4]; 31 g ai/ha, Preemergence) of the same molecule?
**A.** 0%

**Q.** What about the pest or weed control at 125 g/ha [4, 21] of the same molecule?
**A.** 40%

**Q.** And the pest or weed control at 31 g/ha ([5]; 31 g ai/ha, Preemergence)?
**A.** 0%

**Q.** And the pest or weed control at 125 g/ha [5, 21]?
**A.** 20%

**Q.** And the pest or weed control at 31 g/ha ([6]; 31 g ai/ha, Preemergence)?
**A.** 0%

**Q.** And the pest or weed control at 125 g/ha [6, 21]?
**A.** 0%

**Q.** What about the pest or weed control at 250 g/ha [7] of the same molecule?
**A.** 45%

**Q.** And the pest or weed control at 250 g/ha [8]?
**A.** 75%

**Q.** And the pest or weed control at 250 g/ha [9]?
**A.** 0%

**Q.** What about the pest or weed control at 250 g/ha [10] of the same molecule?
**A.** 30%

**Q.** What about the pest or weed control at 125 g/ha ([11]; 125 g ai/ha, postemergence, visual injury on 0 to 100 scale (0 no effect, 100 complete control), approx. 10 d, read-out: Blackgrass plant response rating) of the same molecule?
**A.** 0%

**Q.** What about the pest or weed control at 31 g/ha ([11]; Postemergence, 31 g ai/ha, visual injury after approx. 10 d, 0 to 100 scale, 0 no effect, 100 complete control, read-out: Plant response rating, Blackgrass) of the same molecule?
**A.** 0%

**Q.** What about the pest or weed control at 125 g/ha ([12]; 125 g ai/ha, postemergence, visual injury on 0 to 100 scale (0 no effect, 100 complete control), approx. 10 d, read-out: Barnyardgrass plant response rating) of the same molecule?
**A.** 90%

**Q.** And the pest or weed control at 31 g/ha ([12]; Postemergence, 31 g ai/ha, visual injury after approx. 10 d, 0 to 100 scale, 0 no effect, 100 complete control, read-out: Plant response rating, Barnyardgrass)?
**A.** 50%

**Q.** And the plant injury at 125 g/ha ([13]; 125 g ai/ha, postemergence, visual injury vs untreated controls after approx. 10 d, 0 = no effect, 100 = complete control, read-out: Wheat plant response rating (0 to 100 scale))?
**A.** 0%

**Q.** And the plant injury at 31 g/ha ([13]; Postemergence, 31 g ai/ha, visual injury after approx. 10 d, 0 to 100 scale, 0 no effect, 100 complete control, read-out: Plant response rating, Wheat)?
**A.** 0%

**Q.** And the pest or weed control at 125 g/ha ([14]; 125 g ai/ha, postemergence, visual injury on 0 to 100 scale (0 no effect, 100 complete control), approx. 10 d, read-out: Kochia plant response rating)?
**A.** 30%

**Q.** What about the pest or weed control at 31 g/ha ([14]; Postemergence, 31 g ai/ha, visual injury after approx. 10 d, 0 to 100 scale, 0 no effect, 100 complete control, read-out: Plant response rating, Kochia) of the same molecule?
**A.** 0%

**Q.** What about the pest or weed control at 125 g/ha ([15]; 125 g ai/ha, postemergence, visual injury on 0 to 100 scale (0 no effect, 100 complete control), approx. 10 d, read-out: Foxtail, Giant plant response rating) of the same molecule?
**A.** 80%

**Q.** What about the pest or weed control at 31 g/ha ([15]; Postemergence, 31 g ai/ha, visual injury after approx. 10 d, 0 to 100 scale, 0 no effect, 100 complete control, read-out: Plant response rating, Foxtail, Giant) of the same molecule?
**A.** 40%

**Q.** And the pest or weed control at 125 g/ha ([16]; 125 g ai/ha, postemergence, visual injury vs untreated controls after approx. 10 d, 0 = no effect, 100 = complete control, read-out: Pigweed plant response rating (0 to 100 scale))?
**A.** 0%

**Q.** And the pest or weed control at 31 g/ha ([16]; Postemergence, 31 g ai/ha, visual injury after approx. 10 d, 0 to 100 scale, 0 no effect, 100 complete control, read-out: Plant response rating, Pigweed)?
**A.** 0%

**Q.** What about the plant injury at 125 g/ha ([17]; 125 g ai/ha, postemergence, visual injury on 0 to 100 scale (0 no effect, 100 complete control), approx. 10 d, read-out: Corn plant response rating) of the same molecule?
**A.** 0%

**Q.** And the Corn plant response rating (crop injury, 0 = no effect, 100 = complete kill) at 31 g/ha ([17]; Postemergence, 31 g ai/ha, visual injury after approx. 10 d, 0 to 100 scale, 0 no effect, 100 complete control)?
**A.** 0%

**Q.** What about the pest or weed control at 125 g/ha ([18]; 125 g ai/ha, postemergence, visual injury on 0 to 100 scale (0 no effect, 100 complete control), approx. 10 d, read-out: Galium plant response rating) of the same molecule?
**A.** 50%

**Q.** What about the pest or weed control at 31 g/ha ([18]; Postemergence, 31 g ai/ha, visual injury after approx. 10 d, 0 to 100 scale, 0 no effect, 100 complete control, read-out: Plant response rating, Galium) of the same molecule?
**A.** 20%

**Q.** And the pest or weed control at 125 g/ha ([19]; 125 g ai/ha, postemergence, visual injury vs untreated controls after approx. 10 d, 0 = no effect, 100 = complete control, read-out: Ryegrass, Italian plant response rating (0 to 100 scale))?
**A.** 20%

**Q.** And the pest or weed control at 31 g/ha ([19]; Postemergence, 31 g ai/ha, visual injury after approx. 10 d, 0 to 100 scale, 0 no effect, 100 complete control, read-out: Plant response rating, Ryegrass, Italian)?
**A.** 0%

**Q.** What about the pest or weed control at 125 g/ha ([20]; 125 g ai/ha, postemergence, visual injury vs untreated controls after approx. 10 d, 0 = no effect, 100 = complete control, read-out: Ragweed plant response rating (0 to 100 scale)) of the same molecule?
**A.** 0%

**Q.** And the pest or weed control at 31 g/ha ([20]; Postemergence, 31 g ai/ha, visual injury after approx. 10 d, 0 to 100 scale, 0 no effect, 100 complete control, read-out: Plant response rating, Ragweed)?
**A.** 0%
